In publication PMC3350394, “Kinetic analysis and test-retest variability of the radioligand [^11C](R)-PK11195 binding to TSPO in the human brain - a PET study in control subjects” (EJNMMI Research, 2012):

How the values were obtained:
TSPO [1] = tested on: TSPO; set-up: method as in PMID 1782994; conditions: grey matter; baboons; indirect quantitative approach; cited from earlier work
TSPO [2] = tested on: TSPO; set-up: method as in PMID 22008728; conditions: TSPO SNP Ala147Thr; cited from earlier work
TSPO [3] = target: TSPO (Homo sapiens, UniProt P30536); assay: PET, linear graphical analysis (Logan) distribution volume; type: in vivo; set-up: from tissue; host or cells: living human brain (in vivo PET in six control subjects); conditions: for Error % mean(SD) / Error range (%): VT Logan test-retest; for VT Logan: mean(SD)
Experimental: The [^11C](R)-PK11195 distribution volume was also quantified using a linear graphical analysis for reversible ligand binding. The regional distribution volumes were determined from the slope of the linear plots obtained from 8 to 60 min after intravenous (i.v.) injection using the radioactivity of unchanged [^11C](R)-PK11195 in arterial plasma as an input function.

[4] = Plasma metabolite analysis using HPLC; type: in vivo, human
Excerpt: The method for the determination of the fraction of radioactivity corresponding to unchanged [^11C](R)-PK11195 and labelled metabolites during the time of a PET measurement was a modification of a high-performance liquid chromatography (HPLC) method developed for other PET radioligands. […] The HPLC system used consisted of a Merck-Hitachi D-7000 interface module, a Merck-Hitachi L-7100 pump and a Rheodyne injector (7125 with a 5.0-mL loop) (VWR International, Stockholm, Sweden) equipped with a Waters/-Bondapack-C18 column (300 mm × 7.8 mm, 10-μm particle size; Waters, Milford, MA, USA) and a Merck-Hitachi L-7400 absorbance detector (254 nm) in series with a Packard Radiomatic 150TR radiometric detector (Packard BioScience, Meriden, CT, USA) equipped with a PET flow cell (600-μL cell). The HPLC methods used were acetonitrile (A) and phosphoric acid (0.01 M) (B) as mobile phase at 6.0 mL/min. […] The radioactive peak having a retention time corresponding to [^11C](R)-PK11195 was integrated, and its area was expressed as a percentage of the sum of the areas of all detected radioactive peaks.

[5] = Radioligand brain exposure (PET); type: in vivo, human
Experimental: To calculate the percentage of [^11C](R)-PK11195 injected that was present in the brain at the time of maximal radioactivity, the radioactivity concentration in the ROI for the whole brain was multiplied by the estimated average brain volume (1,250 mL), divided by the radioactivity injected and multiplied by 100 to obtain the percentage of injected radioactivity.
Average radioactivity for the ROI was calculated by pooling the data from the series of brain sections. The radioactivity concentration for each sequential time frame was corrected for the physical decay of carbon-11 and used to obtain the regional time-radioactivity curves (TACs; in kiloBecquerels per cubic centimetre).

[6] = set-up: method as in PMID 19050880, PMID 16039131; conditions: cited from earlier work
p-glycoprotein-ABCB1 = tested on: p-glycoprotein-ABCB1; set-up: method as in PMID 19948230; conditions: cited from earlier work
ABCG2 = tested on: ABCG2; set-up: method as in PMID 19948230; conditions: cited from earlier work
[7] = by the end of PET measurement time
[8] = at peak, approximately 1 min after i.v. injection, n = 6

TSPO (Homo sapiens, UniProt P30536), sequence (P30536 whole entry): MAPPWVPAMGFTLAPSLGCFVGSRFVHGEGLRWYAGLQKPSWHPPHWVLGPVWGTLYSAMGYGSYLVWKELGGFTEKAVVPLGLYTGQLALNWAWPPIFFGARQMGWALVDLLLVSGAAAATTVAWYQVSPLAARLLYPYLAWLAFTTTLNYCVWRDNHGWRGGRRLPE

SMILES: CC[C@@H](C)N([11CH3])C(=O)c1cc2ccccc2c(-c2ccccc2Cl)n1 [[^11C](R)-PK11195]
- fraction of non-specifically bound radioligand (TSPO [1]): about 60%
- sensitivity to TSPO genotype (TSPO [2]): not sensitive to TSPO genotype
- Error % mean(SD) (TSPO [3]; brainstem): -8(12) %
- Error range (%) (TSPO [3]; brainstem): -24 to 12%
- VT Logan (TSPO [3]; brainstem, retest): 0.67(0.19)
- VT Logan (TSPO [3]; brainstem, test): 0.74(0.21)
- Error % mean(SD) (TSPO [3]; caudate): -5(23) %
- Error range (%) (TSPO [3]; caudate): -37 to 25%
- VT Logan (TSPO [3]; caudate, retest): 0.59(0.19)
- VT Logan (TSPO [3]; caudate, test): 0.64(0.16)
- Error % mean(SD) (TSPO [3]; cerebellum): -4(18) %
- Error range (%) (TSPO [3]; cerebellum): -29 to 20%
- VT Logan (TSPO [3]; cerebellum, retest): 0.68(0.18)
- VT Logan (TSPO [3]; cerebellum, test): 0.72(0.18)
- Error % mean(SD) (TSPO [3]; grey matter): -4(16) %
- Error range (%) (TSPO [3]; grey matter): -28 to 17%
- VT Logan (TSPO [3]; grey matter, retest): 0.65(0.18)
- VT Logan (TSPO [3]; grey matter, test): 0.69(0.17)
- Error % mean(SD) (TSPO [3]; putamen): 3(25) %
- Error range (%) (TSPO [3]; putamen): -25 to 42%
- VT Logan (TSPO [3]; putamen, retest): 0.73(0.26)
- VT Logan (TSPO [3]; putamen, test): 0.70(0.15)
- Error % mean(SD) (TSPO [3]; thalamus): -3(20) %
- Error range (%) (TSPO [3]; thalamus): -26 to 27%
- VT Logan (TSPO [3]; thalamus, retest): 0.76(0.25)
- VT Logan (TSPO [3]; thalamus, test): 0.80(0.24)
- Error % mean(SD) (TSPO [3]; white matter): -4(19) %
- Error range (%) (TSPO [3]; white matter): -32 to 19%
- VT Logan (TSPO [3]; white matter, retest): 0.65(0.20)
- VT Logan (TSPO [3]; white matter, test): 0.69(0.18)
- Error % mean(SD) (TSPO [3]; whole brain): -4(16) %
- Error range (%) (TSPO [3]; whole brain): -29 to 17%
- VT Logan (TSPO [3]; whole brain, retest): 0.65(0.19)
- VT Logan (TSPO [3]; whole brain, test): 0.69(0.17)
- polarity of radioactive metabolites in plasma ([4]; HPLC): more polar than the parent compound
- unchanged fraction in plasma [4, 7]: 70 ± 1.5%
- unchanged fraction in plasma, range [4, 7]: 60% to 77
- metabolism ([4]; human plasma): not extensive
- radioactivity injected (ID%) present in the brain [5, 8]: about 2.5%
- radioactivity injected (ID%) present in the brain, range [5, 8]: 1.9% to 3.2
- time of peak of total brain radioactivity after injection ([5]; intravenous injection): approximately 1 min
- mean ID% in the brain ([5]; measurement time from 20 to 60 min): 1.5% to 1.3
- log P [6]: 1.4 to 3.4
- substrate for ABC transporter (p-glycoprotein-ABCB1): not a substrate
- substrate for ABC transporter (ABCG2): not a substrate
